The numbers were not newly measured in publication PMC3187562 (ACS medicinal chemistry letters, 2011), which cites them from elsewhere.

Bounds are passed on as bounds.

Data set [1] relates to HDAC7.
The subject of data set [2] is ΔF508-CFTR. The settings on record: CF lung cell line expressing ΔF508-CFTR from a viral promoter.
Data set [3] relates to ΔF508-CFTR. The following applies: Phase 2a clinical study, CF patients.

For the molecule `C/C=C1\NC(=O)[C@H]2CSSCC/C=C/[C@H](CC(=O)N[C@H](C(C)C)C(=O)N2)OC(=O)[C@H](C(C)C)NC1=O` [romidepsin], in data set [1], the “expression of HDAC7 in treated cells” value is “selectively down-regulated”. Consider `CC(/C=C/C(=O)NO)=C\[C@@H](C)C(=O)c1ccc(N(C)C)cc1` [compound 1, trichostatin A], for which, in data set [2], the “increase of ΔF508-CFTR mRNA levels” value is listed as over 15 fold. For `Cc1ccc(NC(=O)C2(c3ccc4c(c3)OC(F)(F)O4)CC2)nc1-c1cccc(C(=O)O)c1` [VX-809], the “sweat chloride levels (key biomarker)” value in data set [3] is on record as “reduced sweat chloride levels”.

As for `O=C(CCCCCCC(=O)Nc1ccccc1)NO` [compound 2, vorinostat], in data set [2], the “increase of ΔF508-CFTR mRNA levels” value is recorded as over 15 fold and the “increase of ΔF508-CFTR protein levels” value was 25 fold.
